# In US20100256104A1, “NOVEL AMIDE COMPOUNDS” (ASTRAZENECA R&D, priority 2009, published 2010):
# Target: T1, recombinant human GR (Homo sapiens, UniProt P04150)
# T1 construct: purchased Panvera/Invitrogen P2812 (kit P2893)
# T1 sequence (P04150 1-777): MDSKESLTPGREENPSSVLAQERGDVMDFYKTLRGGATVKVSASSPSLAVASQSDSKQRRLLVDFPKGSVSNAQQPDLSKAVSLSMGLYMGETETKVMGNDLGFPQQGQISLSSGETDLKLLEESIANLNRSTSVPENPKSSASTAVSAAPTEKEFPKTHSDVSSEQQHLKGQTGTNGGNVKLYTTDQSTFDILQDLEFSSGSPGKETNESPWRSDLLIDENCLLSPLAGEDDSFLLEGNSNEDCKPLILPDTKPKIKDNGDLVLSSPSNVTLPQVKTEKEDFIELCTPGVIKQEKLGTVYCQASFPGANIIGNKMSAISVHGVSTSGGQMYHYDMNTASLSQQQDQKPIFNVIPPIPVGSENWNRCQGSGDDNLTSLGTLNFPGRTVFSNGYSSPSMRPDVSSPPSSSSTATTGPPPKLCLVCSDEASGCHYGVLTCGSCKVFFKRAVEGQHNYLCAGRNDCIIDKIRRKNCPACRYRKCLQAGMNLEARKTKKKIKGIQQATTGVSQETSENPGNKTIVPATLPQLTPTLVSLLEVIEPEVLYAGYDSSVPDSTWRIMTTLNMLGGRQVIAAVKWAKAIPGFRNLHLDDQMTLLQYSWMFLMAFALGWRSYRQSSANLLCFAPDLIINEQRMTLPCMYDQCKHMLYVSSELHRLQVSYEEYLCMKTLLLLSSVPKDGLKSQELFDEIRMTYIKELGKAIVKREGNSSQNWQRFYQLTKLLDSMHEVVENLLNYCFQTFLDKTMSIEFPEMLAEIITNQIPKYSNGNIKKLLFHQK
# Assay: Human Glucocorticoid Receptor (GR) Assay, fluorescence polarization competition with GS Red tracer
# Conditions: 2 hours at room temperature, 100% control 10 μM Dexamethasone, XLfit model 205, read-out: Inhibition of GR binding, IC50
# Procedure: Human Glucocorticoid Receptor (GR) Assay The assay is based on a commercial kit from Panvera/Invitrogen (Part number P2893). The assay technology is fluorescence polarization. The kit utilises recombinant human GR (Panvera, Part number P2812), a Fluoromone™ labelled tracer (GS Red, Panvera, Part number P2894) and a Stabilizing Peptide 10X (Panvera, Part number P2815). The GR and Stabilizing Peptide reagents are stored at −70° C. while the GS Red is stored at −20° C. Also included in the kit are 1M DTT (Panvera, Part number P2325, stored at −20° C.) and GR Screening buffer 10X (Panvera, Part number P2814, stored at −70° C. initially but once thawed stored at room temperature). Avoid repeated freeze/thaws for all reagents. The GR Screening buffer 10X comprises 100 mM potassium phosphate, 200 mM sodium molybdate, 1 mM EDTA and 20% DMSO. Test compounds (1 μL) and controls (1 μL) in 100% DMSO were added to black polystyrene 384-well plates (Greiner low volume black flat-bottom, part number 784076). 0% control was 100% DMSO and 100% control was 10 μM Dexamethasone. Background solution (8 μL; assay buffer 10X, Stabilizing Peptide, DTT and ice cold MQ water) was added to the background wells. GS Red solution (7 μL; assay buffer 10X, Stabilizing Peptide, DTT, GS Red and ice cold water) was added to all wells except background wells. GR solution (7 μL; assay buffer 10X, Stabilizing Peptide, DTT, GR and ice cold water) was added to all wells. The plate was sealed and incubated in a dark at room temperature for 2 hours. The plate was read in an Analyst plate reader (LJL Biosystems/Molecular Devices Corporation) or other similar plate reader capable of recording fluorescence polarization (excitation wavelength 530 nm, emission wavelength 590 nm and a dichroic mirror at 561 nm).
row,SMILES,IC50
1,"CCC(=O)O[C@]1(C(=O)SC)CC[C@H]2[C@@H]3CCC4=Cc5c(cnn5-c5cccc(C(=O)N6CCC[C@@H]6C(N)=O)c5)C[C@]4(C)[C@@]3(F)[C@@H](O)C[C@@]21C [Example 59, (1R,3aS,3bS,10aS, 10bR,11S,12aS)-7-(3-{[(2R)-2-carbamoyl-pyrrolidin-1-yl]carbonyl}phenyl)-10b-fluoro-11-hydroxy-10a,12a-dimethyl-1-[(methylsulfanyl)carbonyl]-1,2,3,3a,3b,4,5,7,10, 10a,10b,11,12,12a-tetradecahydrocyclo-penta[5,6]naphtho [1,2-f]indazol-1-yl propanoate]",3.3 nM
2,"COCC(=O)O[C@]1(C(=O)SCF)CC[C@H]2[C@@H]3C[C@H](C)C4=Cc5c(cnn5-c5cccc(C(=O)NCC(N)=O)c5)C[C@]4(C)[C@H]3[C@@H](O)C[C@@]21C [Example 38, (1R,3aS,3bS,5S, 10aR,10bS,11S,12aS)-7-{3-[(2-amino-2-oxoethyl)carbamoyl]phenyl}-1-{[(fluoromethyl)sulfanyl]carbonyl}-11-hydroxy-5,10a, 12a-trimethyl-1,2,3,3a,3b,4,5,7,10, 10a,10b,11,12,12a-tetradecahydrocyclo-penta[5,6]naphtho [1,2-f]indazol-1-yl methoxyacetate]",8.3 nM
3,"CCC(=O)O[C@]1(C(=O)SCF)CC[C@H]2[C@@H]3CCC4=Cc5c(cnn5-c5cccc(C(=O)N[C@H](C)C(N)=O)c5)C[C@]4(C)[C@@]3(F)[C@@H](O)C[C@@]21C [Example 32, (1R,3aS,3bS,10aS, 10bR,11S,12aS)-7-(3-{[(1R)-2-amino-1-methyl-2-oxoethyl]carbamoyl}phenyl)-10b-fluoro-1-{[(fluoromethyl)-sulfanyl]carbonyl}-11-hydroxy-10a,12a-dimethyl-1,2,3,3a,3b,4,5,7,10, 10a,10b,11,12,12a-tetradecahydrocyclo-penta[5,6]naphtho [1,2-f]indazol-1-yl propanoate]",2.5 nM
4,"COCC(=O)O[C@]1(C(=O)SCF)CC[C@H]2[C@@H]3CCC4=Cc5c(cnn5-c5cccc(C(=O)NCCSC)c5)C[C@]4(C)[C@H]3[C@@H](O)C[C@@]21C [Example 8, (1R,3aS,3bS,10aR,10bS,11S,12aS)-1-{[(Fluoromethyl)sulfanyl]carbonyl}-11-hydroxy-10a,12a-dimethyl-7-(3-{[2-(methylsulfanyl)ethyl]carbamoyl}phenyl)-1,2,3,3a,3b,4,5,7,10,10a,10b,11,12,12a-tetradecahydrocyclopenta[5,6]naphtho[1,2-f]indazol-1-yl methoxyacetate]",1.8 nM
5,"COCC(=O)O[C@]1(C(=O)SCF)CC[C@H]2[C@@H]3CCC4=Cc5c(cnn5-c5cccc(C(=O)N6CCC[C@@H]6C(N)=O)c5)C[C@]4(C)[C@@]3(F)[C@@H](O)C[C@@]21C [Example 15, (1R,3aS,3bS,10aS,10bR,11S,12aS)-7-(3-{[(2R)-2-Carbamoylpyrrolidin-1-yl]carbonyl}phenyl)-10b-fluoro-1-{[(fluoromethyl)sulfanyl]carbonyl}-11-hydroxy-10a,12a-dimethyl-1,2,3,3a,3b,4,5,7,10,10a,10b,11,12,12a-tetradecahydrocyclopenta[5,6]naphtho[1,2-f]indazol-1-yl methoxyacetate]",4.3 nM

# Further compounds by falling IC50, results first:
row,IC50,SMILES
1,12 nM,"C[C@]12Cc3cnn(-c4cccc(C(=O)N5CCC[C@@H]5C(N)=O)c4)c3C=C1CC[C@@H]1[C@@H]2[C@@H](O)C[C@@]2(C)[C@H]1CC[C@]2(OC(=O)c1cocn1)C(=O)SCC#N [Example 49, (1R,3aS,3bS,10aR, 10bS,11S,12aS)-7-(3-{[(2R)-2-carbamoyl-pyrrolidin-1-yl]carbonyl}phenyl)-1-{[(cyanomethyl)sulfanyl]carbonyl}-11-hydroxy-10a,12a-dimethyl-1,2,3,3a,3b,4,5,7,10, 10a,10b,11,12,12a-tetradecahydrocyclo-penta[5,6]naphtho [1,2-f]indazol-1-yl 1,3-oxazole-4-carboxylate]"
2,10 nM,"COCC(=O)O[C@]1(C(=O)SCC#N)CC[C@H]2[C@@H]3CCC4=Cc5c(cnn5-c5cccc(C(=O)N6CCC[C@@H]6C(N)=O)c5)C[C@]4(C)[C@@]3(F)[C@@H](O)C[C@@]21C [Example 57, (1R,3aS,3bS,10aS, 10bR,11S,12aS)-7-(3-{[(2R)-2-carbamoyl-pyrrolidin-1-yl]carbonyl}phenyl)-1-{[(cyanomethyl)sulfanyl]carbonyl}-10b-fluoro-11-hydroxy-10a,12a-dimethyl-1,2,3,3a,3b,4,5,7,10, 10a,10b,11,12,12a-tetradecahydrocyclo-penta[5,6]naphtho [1,2-f]indazol-1-yl methoxyacetate]"
3,7.1 nM,"CCC(=O)O[C@]1(C(=O)SCF)CC[C@H]2[C@@H]3C[C@H](C)C4=Cc5c(cnn5-c5cccc(C(=O)NCC(N)=O)c5)C[C@]4(C)[C@H]3[C@@H](O)C[C@@]21C [Example 37, (1R,3aS,3bS,5S,10aR, 10bS,11S,12aS)-7-{3-[(2-amino-2-oxoethyl)carbamoyl]phenyl}-1-{[(fluoromethyl)sulfanyl]carbonyl}-11-hydroxy-5,10a, 12a-trimethyl-1,2,3,3a,3b,4,5,7,10, 10a,10b,11,12,12a-tetradecahydrocyclo-penta[5,6]naphtho [1,2-f]indazol-1-yl propanoate]"
4,4.3 nM,"CCC(=O)O[C@]1(C(=O)SCC#N)CC[C@H]2[C@@H]3CCC4=Cc5c(cnn5-c5cccc(C(=O)NC6CCS(=O)(=O)C6)c5)C[C@]4(C)[C@H]3[C@@H](O)C[C@@]21C (stereo partly drawn) [Example 12, (1R,3aS,3bS,10aR,10bS,11S,12aS)-1-{[(Cyanomethyl)sulfanyl]carbonyl}-7-{3-[(1,1-dioxidotetrahydrothiophen-3-yl)carbamoyl]phenyl}-11-hydroxy-10a,12a-dimethyl-1,2,3,3a,3b,4,5,7,10,10a,10b,11,12,12a-tetradecahydrocyclopenta[5,6]naphtho[1,2-f]indazol-1-yl propanoate]"
5,1.9 nM,"COCC(=O)O[C@]1(C(=O)SCF)[C@H](C)C[C@H]2[C@@H]3CCC4=Cc5c(cnn5-c5cccc(C(=O)N[C@@H](C)C(N)=O)c5)C[C@]4(C)[C@@]3(F)[C@@H](O)C[C@@]21C [Example 22, (1R,2R,3aS,3bS,10aS,10bR,11S,12aS)-7-(3-{[(1S)-2-Amino-1-methyl-2-oxoethyl]carbamoyl}phenyl)-10b-fluoro-1-{[(fluoromethyl)sulfanyl]carbonyl}-11-hydroxy-2,10a,12a-trimethyl-1,2,3,3a,3b,4,5,7,10,10a,10b,11,12,12a-tetradecahydrocyclopenta[5,6]naphtho[1,2-f]indazol-1-yl methoxyacetate]"
6,1.4 nM,"CCC(=O)O[C@]1(C(=O)SCF)CC[C@H]2[C@@H]3CCC4=Cc5c(cnn5-c5cccc(C(=O)NCCSC)c5)C[C@]4(C)[C@H]3[C@@H](O)C[C@@]21C [Example 7, (1R,3aS,3bS,10aR,10bS,11S,12aS)-1-{[(Fluoromethyl)sulfanyl]carbonyl}-11-hydroxy-10a,12a-dimethyl-7-(3-{[2-(methylsulfanyl)ethyl]carbamoyl}phenyl)-1,2,3,3a,3b,4,5,7,10,10a,10b,11,12,12a-tetradecahydrocyclopenta[5,6]naphtho[1,2-f]indazol-1-yl propanoate]"
7,0.47 nM,"CCNC(=O)c1cccc(-n2ncc3c2C=C2CC[C@H]4[C@@H]5C[C@@H](C)[C@](OC(=O)COC)(C(=O)SCF)[C@@]5(C)C[C@H](O)[C@]4(F)[C@@]2(C)C3)c1 [Example 27, (1R,2R,3aS,3bS, 10aS,10bR,11S,12aS)-7-[3-(ethylcarbamoyl)phenyl]-10b-fluoro-1-{[(fluoro-methyl)sulfanyl]-carbonyl}-11-hydroxy-2,10a,12a-trimethyl-1,2,3,3a, 3b,4,5,7,10,10a,- 10b,11,12,12a-tetradecahydrocyclo-penta[5,6]naphtho [1,2-f]indazol-1-yl methoxyacetate]"
